{"source": "paper PMC5789083", "about": "“Mechanisms driving the antibacterial and antibiofilm properties of Hp1404 and its analogue peptides against multidrug-resistant Pseudomonas aeruginosa” (Scientific Reports, 2018)", "key": {"[1]": {"test_system": "P. aeruginosa strains (biofilm formation)", "format": "cell-based, Pseudomonas aeruginosa", "conditions": "24 h, 37 °C, crystal violet OD595", "experimental": "To evaluate the ability of bacterial strains to form biofilms either in the absence or presence of peptides, antibiotic-susceptible P. aeruginosa (ATCC 27853), and various strains of MDR P. aeruginosa were cultured in nutrient broth (NB). […]. The biofilms were fixed with 100% methanol for 15 min, stained with 0.1% crystal violet (CV) for 1 h, and rinsed three times with distilled water (dH2O). After the addition of 95% ethanol, biofilm mass was quantified by measuring OD at 595 nm using a Versa-Max microplate ELISA reader (Molecular Devices). Results were expressed as the percentage of biofilm formed with respect to the control. […] All experiments were performed at least in triplicate."}, "P. aeruginosa 1034": {"test_system": "P. aeruginosa 1034", "format": "in vivo", "conditions": "BALB/c mice, intradermal P. aeruginosa 1034", "experimental": "BALB/c mice (6 weeks old) were used in this study. The mice were shaved and intradermally injected with 20 µl of P. aeruginosa (1 × 10^8 CFU/ml) in PBS."}, "[2]": {"test_system": "P. aeruginosa 1034 biofilm", "experiment": "LIVE/DEAD BacLight (SYTO9/PI) staining of biofilms", "format": "cell-based, Pseudomonas aeruginosa", "conditions": "even at 400 µM; P. aeruginosa 1034, 24 h, 37 °C", "experimental": "Visualization of the remaining bacteria in the biofilm was achieved using the LIVE/DEAD BacLight Bacterial Viability Kit (Molecular Probes, Eugene, OR, USA), and an IX71 inverted fluorescence microscope (Olympus, Tokyo, Japan) was used for observation[58],[59]. Briefly, bacterial suspensions (5 × 10^5 CFU/mL) were incubated with 0.5× MBIC or 1× MBIC of the peptides, for 24 h at 37 °C. Following incubation, biofilms were stained with pre-mixed dye (SYTO-9 and propidium iodide) for 30 min in the dark; images were obtained using the aforementioned microscope."}, "[3]": {"test_system": "Pseudomonas aeruginosa and MRPA strains", "experiment": "microbe, parasite or virus in culture", "format": "cell-based", "conditions": "Pseudomonas aeruginosa, broth micro-dilution, 37 °C, 18–24 h", "description": "Gram-negative (Pseudomonas aeruginosa ATCC 27853) bacterial strains were obtained from the ATCC (American Type Culture Collection; Manassas, VA, USA). Multidrug-resistant strains (Pseudomonas aeruginosa 138, 431, 434, 557, 559, 778, 1034, 1162, 3290, 3399, 3592, 3904, 4007, 4319, 4891, 5018, and 671973) were obtained from the Chonnam National University Hospital (Gwangju, South Korea).\nWe examined the activity of each peptide against both pseudomonas aeruginosa and multidrug-resistant strains. The minimal inhibitory concentrations (MICs) of peptides were determined using the broth micro-dilution assay as described previously. Briefly, bacterial strains were cultivated with shaking overnight at 37 °C. The next day, they were diluted to a density of 2 × 10^5 CFU/mL with growth medium. Peptides were serially diluted with 10 mM sodium phosphate buffer. 50 µL bacterial aliquots were mixed with an equal volume of peptide solution, and incubated at 37 °C for 18–24 h. Inhibition of bacterial growth was determined by measuring the absorbance at 600 nm using a Versa Max microplate reader (Molecular Devices, Sunnyvale, CA, USA). The test was performed in triplicate."}}, "note": "Where two headings read alike, the source gives them in different places."}
{"smiles": "O=C(O)c1cn(C2CC2)c2cc(N3CCNCC3)c(F)cc2c1=O", "note": "[Ciprofloxacin, ciprofloxacin, reference compound]", "values": [{"measurement": "MBIC", "setting": "[1]; P. aeruginosa 434", "value": ">400", "unit": "µM"}, {"measurement": "MBIC", "setting": "[1]; P. aeruginosa 559", "value": ">400", "unit": "µM"}, {"measurement": "MBIC", "setting": "[1]; P. aeruginosa 778", "value": ">400", "unit": "µM"}, {"measurement": "MBIC", "setting": "[1]; P. aeruginosa 1034", "value": ">400", "unit": "µM"}, {"measurement": "MBIC", "setting": "[1]; P. aeruginosa 1162", "value": ">400", "unit": "µM"}, {"measurement": "MBIC", "setting": "[1]; P. aeruginosa 3399", "value": ">400", "unit": "µM"}, {"measurement": "MBIC", "setting": "[1]; P. aeruginosa 3543", "value": ">400", "unit": "µM"}, {"measurement": "MBIC", "setting": "[1]; P. aeruginosa 4007", "value": ">400", "unit": "µM"}, {"measurement": "killing of bacteria in infected skin", "setting": "P. aeruginosa 1034; day 7", "value": "did not kill the bacteria"}, {"measurement": "decrease in number of colonies", "setting": "P. aeruginosa 1034; until 4 days", "value": "about 60%"}, {"measurement": "biofilm formation by the MRPA strain (live/dead staining)", "setting": "[2]", "value": "did not inhibit biofilm formation"}, {"measurement": "MIC", "setting": "[3]; ATCC27853, P. aeruginosa ATCC 27853, 2 × 10^5 CFU/mL, A600, triplicate", "value": 1.56, "unit": "µM"}, {"measurement": "MIC", "setting": "[3]; P. aeruginosa 138 (multidrug-resistant), triplicate", "value": "> 400", "unit": "µM"}, {"measurement": "MIC", "setting": "[3]; P. aeruginosa 431 (multidrug-resistant), triplicate", "value": "> 400", "unit": "µM"}, {"measurement": "MIC", "setting": "[3]; P. aeruginosa 434 (multidrug-resistant), triplicate", "value": "> 400", "unit": "µM"}, {"measurement": "MIC", "setting": "[3]; P. aeruginosa 557 (multidrug-resistant), triplicate", "value": "> 400", "unit": "µM"}, {"measurement": "MIC", "setting": "[3]; P. aeruginosa 559 (multidrug-resistant), triplicate", "value": "> 400", "unit": "µM"}, {"measurement": "MIC", "setting": "[3]; P. aeruginosa 778 (multidrug-resistant), triplicate", "value": "> 400", "unit": "µM"}, {"measurement": "MIC", "setting": "[3]; P. aeruginosa 1034 (multidrug-resistant), triplicate", "value": "> 400", "unit": "µM"}, {"measurement": "MIC", "setting": "[3]; P. aeruginosa 1162 (multidrug-resistant), triplicate", "value": "> 400", "unit": "µM"}, {"measurement": "MIC", "setting": "[3]; P. aeruginosa 3290 (multidrug-resistant), triplicate", "value": "> 400", "unit": "µM"}, {"measurement": "MIC", "setting": "[3]; P. aeruginosa 3399 (multidrug-resistant), triplicate", "value": "> 400", "unit": "µM"}, {"measurement": "MIC", "setting": "[3]; P. aeruginosa 3543 (multidrug-resistant), triplicate", "value": 400, "unit": "µM"}, {"measurement": "MIC", "setting": "[3]; P. aeruginosa 3592 (multidrug-resistant), triplicate", "value": "> 400", "unit": "µM"}, {"measurement": "MIC", "setting": "[3]; P. aeruginosa 3904 (multidrug-resistant), triplicate", "value": 400, "unit": "µM"}, {"measurement": "MIC", "setting": "[3]; P. aeruginosa 4007 (multidrug-resistant), triplicate", "value": "> 400", "unit": "µM"}, {"measurement": "MIC", "setting": "[3]; P. aeruginosa 4319 (multidrug-resistant), triplicate", "value": "> 400", "unit": "µM"}, {"measurement": "MIC", "setting": "[3]; P. aeruginosa 4891 (multidrug-resistant), triplicate", "value": "> 400", "unit": "µM"}, {"measurement": "MIC", "setting": "[3]; P. aeruginosa 5018 (multidrug-resistant), triplicate", "value": "> 400", "unit": "µM"}, {"measurement": "MIC", "setting": "[3]; P. aeruginosa 671973 (multidrug-resistant), triplicate", "value": 100, "unit": "µM"}]}
